Measurements as given in US10849915B2, “Methods for treating inflammatory bowel disease using prostate specific membrane antigen (PSMA) inhibitors” (The Johns Hopkins University, priority 2014, dated 2020).

What was measured:
[1] = target: T1, PSMA (Mus musculus, UniProt O35409); assay: GCPII (PSMA) ex vivo activity assay on mucosa extract of DSS colitis mice; assay type: biochemical; details: DSS-treated mice, extract from mucosa; FIG. 4
T1 construct: from tissue; host or cells: colonic or cecal mucosa of C57/B6 mice with DSS-induced colitis (sonicated tissue lysate supernatant)
Method: On the day of the ex vivo experiment, the tissues were weighed and immersed in 0.5 ml of ice-cold 50 mM Tris Buffer (pH 7.7 at RT). While on ice, each tissue was sonicated for 30-60 seconds (medium output, 60) via use of a Kontes Ultrasonic Cell Disrupter. After a 2 min spin at 13,000 rpm, supernatants were analyzed for protein content (Dc Protein Assay Kit; Bio Rad). NAAG-hydrolyzing activity measurements were carried out, based on published procedures Robinson et al., 1987; Rojas et al., 2002). Briefly, the reaction mixture (total volume of 50 μL) contained NAA[3H]G (70 nM, 50 Ci/mmol) and tissue lysates (7 concentrations each, tested in quadruplicate), in Tris-HCl (pH 7.4, 40 mM) containing 1 mM CoCl2. Assay standards were comprised of human recombinant GCPII enzyme (40-200 pM, final). The reaction was carried out at 37° C. for 40-45 min and stopped with ice-cold sodium phosphate buffer (pH 7.4, 0.1 M, 50 μL). Blanks were obtained by incubating the reaction mixture in the absence of enzyme source. A 90 μL aliquot from each terminated reaction was transferred to a well in a 96-well spin column containing AG1X8 ion-exchange resin; the plate was centrifuged at 1500 rpm for 5 min using a Beckman GS-6R centrifuge equipped with a PTS-2000 rotor. […] The radioactivity corresponding to [3H]-G was determined with a scintillation counter (Topcount NXT, Packard, counting efficiency 80%). […]

[2] = system: DSS-induced colitis; assay: DSS-induced murine model of colitis; assay type: in vivo, mice (C57/B6)
Text: DSS-induced colitis model was generated as described previously (Alex et al., 2009; Alex et al., 2010). […] The fact that mutations in either IL-10 or IL-10 receptors in human lead to spontaneous Crohn's disease at very early age (usually less than 1 year old) (Glocker et al., 2011), further emphasize the critical role of IL-10 signaling pathway in its anti-inflammatory and immune-modulatory effects in the gut and the homeostasis of healthy gut.

[3] = system: spontaneous colitis in IL-10 KO mice; assay: IL-10 knockout mice with spontaneous colitis; assay type: in vivo, mice (C57/B6)
[4] = 2-PMPA 100 mg/kg i.p., daily for 8 days, DSS mice, 2 h after dosing on day 8
Method: Blood and colonic mucosa were collected for drug PK analysis. Plasma was generated from blood by centrifugation and all samples were stored at −80° C. until further analysis. Concentrations of inhibitors in plasma and tissue were determined via LC/MS/MS as described previously (Rais et al., 2013). Briefly, 2-PMPA was extracted from plasma and tissue by protein precipitation with 5× methanol containing 2-(phosphonomethyl) succinic acid (2-PMSA; 1 μM) as an internal standard. The samples were vortexed (30 s) and centrifuged (10,000 g for 10 min). Supernatant was dried under a gentle stream of nitrogen at 45° C. and the residue was reconstituted with 100 μL of acetonitrile and vortexed. 50 μL of derivatizing agent N-tert-Butyldimethysilyl-N-methyltrifluoro-acetamide (MTBSTFA) was added to microcentrifuge tubes, vortexed, and heated at approximately 60° C. for 40 min. At the end of 40 min, the derivatized samples were analyzed via LC/MS/MS. Chromatographic analysis was performed using an Accela™ ultra high-performance system consisting of an analytical pump, and an autosampler coupled with TSQ Vantage mass spectrometer (Thermo Fisher Scientific Inc., Waltham Mass.). […] The [M+H]+ ion transitions of derivatized 2-PMPA at m/z 683.0>551.4 and that of the internal standard at m/z 669.0>537.2 were monitored with the total run time of 5 min. […]

T1 sequence (O35409 whole entry): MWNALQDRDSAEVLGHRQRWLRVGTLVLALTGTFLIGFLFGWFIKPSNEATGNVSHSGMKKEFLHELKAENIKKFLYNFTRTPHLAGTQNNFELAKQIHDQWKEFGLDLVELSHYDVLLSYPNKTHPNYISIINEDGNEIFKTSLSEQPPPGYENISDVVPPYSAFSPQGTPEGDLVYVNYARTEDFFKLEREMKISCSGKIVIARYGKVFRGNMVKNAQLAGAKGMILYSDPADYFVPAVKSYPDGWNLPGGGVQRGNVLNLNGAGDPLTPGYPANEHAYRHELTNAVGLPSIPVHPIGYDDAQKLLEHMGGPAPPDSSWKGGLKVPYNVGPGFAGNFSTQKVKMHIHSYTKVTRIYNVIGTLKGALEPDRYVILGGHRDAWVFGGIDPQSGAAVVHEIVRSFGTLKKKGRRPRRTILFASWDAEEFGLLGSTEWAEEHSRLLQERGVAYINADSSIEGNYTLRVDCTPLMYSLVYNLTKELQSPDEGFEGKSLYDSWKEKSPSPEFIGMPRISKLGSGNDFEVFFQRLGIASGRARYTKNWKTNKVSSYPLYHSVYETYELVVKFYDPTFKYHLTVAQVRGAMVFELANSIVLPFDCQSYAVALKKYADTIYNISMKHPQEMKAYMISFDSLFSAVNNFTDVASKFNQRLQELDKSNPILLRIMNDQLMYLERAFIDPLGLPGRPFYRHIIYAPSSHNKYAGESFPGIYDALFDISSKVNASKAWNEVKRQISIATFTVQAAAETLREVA

| Compound | PSMA activity in the colonic and cecal mucosa [1] | Disease activity index (DAI) ([2]; DSS 2.5%, 7 days in drinking water, 2-PMPA 100 mg/kg given simultaneously, vs vehicle, P<0.05, FIG. 3) | size and weight of spleen ([2]; DSS-induced murine model of colitis, FIG. 5) | spleen inflammation ([2]; mice with DSS-colitis, FIG. 5) | mice with complete retraction of prolapse ([3]; 2 of the 20 IL-10 KO mice treated, 100 mg/kg for 2 weeks, FIG. 6D) [%] | disease severity (macroscopic disease, colonic hypotrophy, stool consistency) ([3]; IL-10 KO mice, 3 month old, 2-PMPA 100 mg/kg for 2 weeks, FIGS. 6A-6B) | body weight of prolapse-retracting mice ([3]; compared to untreated control IL-10 KO mice, FIG. 6C) | 2-PMPA concentration in plasma and colon [4] | colon shortening of DSS-colitis mice ([2]; oral administration, n=5 per group, P 0.06, not statistically significant, FIG. 9) |
| --- | --- | --- | --- | --- | --- | --- | --- | --- | --- |
| O=C(O)CCC(CP(=O)(O)O)C(=O)O (stereo not drawn) [2-PMPA, 2-(phosphonomethyl)-pentanedioic acid] | potently inhibited | ameliorates disease activity | reduces | significantly reduced | 10 | significantly reduced | increased dramatically | approximately 25 μM | – |
| CC(C)OC(=O)OCOC(=O)C(CCC(=O)O)CP(=O)(OCOC(=O)OC(C)C)OCOC(=O)OC(C)C (stereo not drawn) [Tris-POC-2-PMPA] | – | – | – | – | – | – | – | – | reversed |
